Key:
[1] = test system: mouse experimental autoimmune encephalomyelitis (EAE) model; assay: disease animal model of MS (mouse experimental autoimmune encephalomyelitis (EAE) model, clinical score); assay type: in vivo; settings: experiment using a disease animal model of MS
Procedure: Using a mouse EAE model, the suppressive effect of Compound A on an increase in clinical score was evaluated. The evaluation was performed by reference to non-patent document 3. As the experiment animal, 8-week-old female C57BL/6J mouse (CHARLES RIVER LABORATORIES JAPAN, INC.) was used. Monohydrochloride of Compound A was dissolved in 0.5% (w/v) methylcellulose (MC) to prepare 1 mg/mL, 3 mg/mL and 6 mg/mL Compound A solutions. FTY-720 hydrochloride (Cayman Chemical) was dissolved in 0.5% (w/v) MC to prepare a 0.01 mg/mL FTY-720 solution. […]
As clinical scores (score 0; normal, score 1; limp tail, score 2; hind limb weakness, score 3; partial hind limb paralysis, score 4; complete hind limb paralysis, score 5; moribund state, dead), the condition was observed over time and scored for each individual for 18 days from day 1.
Using a mouse Adoptive transfer EAE model, the suppressive effect of Compound A on an increase in clinical score was evaluated. […]
As clinical scores (score 0; normal, score 1; limp tail, score 2; hind limb weakness, score 3; partial hind limb paralysis, score 4; complete hind limb paralysis, score 5; moribund state, dead), the condition was observed over time and scored for each individual for 20 days from day 1.

[2] = biological target: T1, inducible T cell kinase (ITK) (Homo sapiens, UniProt Q08881); settings: as described in patent document 1 (WO 2011/065402); cited from earlier work
T1 sequence (Q08881 1-620): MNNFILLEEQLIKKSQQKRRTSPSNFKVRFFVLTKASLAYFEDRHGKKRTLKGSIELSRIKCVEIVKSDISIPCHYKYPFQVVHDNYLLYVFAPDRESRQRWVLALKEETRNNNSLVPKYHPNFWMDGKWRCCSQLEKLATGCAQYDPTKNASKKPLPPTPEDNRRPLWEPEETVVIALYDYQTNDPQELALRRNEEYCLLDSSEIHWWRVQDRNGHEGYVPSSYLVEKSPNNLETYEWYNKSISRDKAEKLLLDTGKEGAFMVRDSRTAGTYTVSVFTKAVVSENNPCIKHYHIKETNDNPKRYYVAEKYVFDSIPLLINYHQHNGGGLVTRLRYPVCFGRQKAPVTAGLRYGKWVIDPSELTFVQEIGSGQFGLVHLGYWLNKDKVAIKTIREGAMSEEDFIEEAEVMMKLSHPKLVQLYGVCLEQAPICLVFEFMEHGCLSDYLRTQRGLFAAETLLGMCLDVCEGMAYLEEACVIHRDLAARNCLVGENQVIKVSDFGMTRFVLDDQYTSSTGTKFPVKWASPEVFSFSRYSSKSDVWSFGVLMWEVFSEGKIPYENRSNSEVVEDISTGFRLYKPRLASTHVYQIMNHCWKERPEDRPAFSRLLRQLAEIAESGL

## C[C@@H](C(=O)N(C)c1ccc2cc(-c3n[nH]c4c3CCC(C)(C)C4)[nH]c2c1)N1CCOCC1 [Compound A, N-[2-(6,6-dimethyl-4,5,6,7-tetrahydro-1H-indazol-3-yl)-1H-indol-6-yl]-N-methyl-(2S)-2-(morpholin-4-yl)propanamide]
[1]
  severity of the disease: significantly reduce severity of the disease
[2]
  ITK inhibitory activity: has an ITK inhibitory activity

Reference: patent US12458646B2, “Therapeutic or preventing agent for multiple sclerosis including indole compound” (JAPAN TOBACCO INC., priority 2018, dated 2025)
